Legend:
[1] = target: T1, Estrogen receptor (Homo sapiens) (UniProt P03372); assay: Displacement of [3H]estradiol from human ERalpha relative to estradiol
T1 sequence (whole entry): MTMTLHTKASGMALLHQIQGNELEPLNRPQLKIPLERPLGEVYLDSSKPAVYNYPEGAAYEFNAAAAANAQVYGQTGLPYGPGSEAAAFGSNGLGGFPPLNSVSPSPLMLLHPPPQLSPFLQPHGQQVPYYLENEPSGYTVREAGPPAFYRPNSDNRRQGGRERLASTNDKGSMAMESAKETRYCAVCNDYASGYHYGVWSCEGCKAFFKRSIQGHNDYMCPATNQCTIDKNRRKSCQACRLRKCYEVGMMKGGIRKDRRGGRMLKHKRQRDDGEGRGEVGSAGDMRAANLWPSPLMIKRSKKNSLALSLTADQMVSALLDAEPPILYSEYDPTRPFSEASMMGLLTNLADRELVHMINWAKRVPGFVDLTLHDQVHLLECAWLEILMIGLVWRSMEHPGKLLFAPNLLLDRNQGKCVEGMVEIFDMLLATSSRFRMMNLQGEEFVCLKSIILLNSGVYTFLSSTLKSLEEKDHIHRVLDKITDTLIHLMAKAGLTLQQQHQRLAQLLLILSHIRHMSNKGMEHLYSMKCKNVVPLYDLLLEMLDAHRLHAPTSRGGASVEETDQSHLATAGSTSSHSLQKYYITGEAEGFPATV

[2] = target: Estrogen receptor beta (Homo sapiens) (UniProt Q92731); assay: Displacement of [3H]estradiol from human ERbeta relative to estradiol
Estrogen receptor = target: T2, Estrogen receptor (Homo sapiens, UniProt P03372); assay: Displacement of [3H]estradiol from human ERalpha
T2 sequence (P03372 whole entry): T1 sequence (whole entry)

[3] = target: T3, Estrogen receptor (Homo sapiens) (UniProt Q92731+P03372); assay: Ratio of Kd for human ERalpha to Kd for human ERbeta; type: protein assay
[4] = target: T3, Estrogen receptor (Homo sapiens); assay: Ratio of RBA for human ERalpha to RBA for human ERbeta; type: protein assay
[5] = target: T3, Estrogen receptor (Homo sapiens); assay: Ratio of RBA for human ERbeta to RBA for human ERalpha; type: protein assay

Chain of Estrogen receptor beta (Homo sapiens) (Q92731 whole entry): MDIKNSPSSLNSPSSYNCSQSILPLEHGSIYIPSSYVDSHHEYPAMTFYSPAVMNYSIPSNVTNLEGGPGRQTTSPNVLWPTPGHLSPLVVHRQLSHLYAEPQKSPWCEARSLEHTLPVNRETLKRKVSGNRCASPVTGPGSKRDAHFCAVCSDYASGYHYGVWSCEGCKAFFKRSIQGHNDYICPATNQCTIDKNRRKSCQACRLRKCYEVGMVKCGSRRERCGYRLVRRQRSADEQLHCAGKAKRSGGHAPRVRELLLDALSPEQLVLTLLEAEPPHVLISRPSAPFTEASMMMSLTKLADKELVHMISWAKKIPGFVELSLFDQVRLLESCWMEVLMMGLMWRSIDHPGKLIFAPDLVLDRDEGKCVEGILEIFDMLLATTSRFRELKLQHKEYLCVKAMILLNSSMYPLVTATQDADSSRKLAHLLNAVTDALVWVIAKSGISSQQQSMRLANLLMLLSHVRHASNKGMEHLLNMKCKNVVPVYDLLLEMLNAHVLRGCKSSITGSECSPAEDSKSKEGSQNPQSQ
T3 sequence (Q92731 whole entry, looked up, one chain of several): as the sequence (Q92731 whole entry) above

| relative binding affinity (RBA) [1] | relative binding affinity (RBA) [2] | Kd (Estrogen receptor) [nM] | Selectivity ratio [3] | Selectivity ratio [4] | Selectivity ratio [5] | Compound |
| --- | --- | --- | --- | --- | --- | --- |
| 0.14 | 0.05 | – | – | – | – | CNc1c(/C=N/O)ccc(-c2cccc(O)c2)c1-c1cccc(O)c1 |
| 1.17 | 0.72 | – | – | – | – | CNc1c(/C=N/O)ccc(-c2ccccc2)c1-c1ccc(O)cc1 |
| 0.65 | 0.14 | – | – | – | – | CNc1c(/C=N/O)ccc(-c2cccc(OC)c2)c1-c1cccc(OC)c1 |
| 5.38 | 1.11 | 3.7 | – | – | – | CNc1c(/C=N/O)ccc(-c2ccc(O)cc2)c1-c1ccccc1 |
| 2.33 | 0.47 | – | – | – | – | CNc1c(/C=N/O)ccc(-c2ccc(OC)cc2)c1-c1ccc(OC)cc1 |
| 1.96 | 0.14 | – | 36 | – | – | CNc1c(/C=N/O)ccc(-c2ccc(O)cc2)c1-c1ccc(O)cc1 |
| 3.91 | 2.13 | – | – | 2 | – | CNc1c(/C=N/O)ccc(-c2cccc(C)c2)c1-c1cccc(C)c1 |
| 0.95 | 1.86 | – | – | – | 2 | CNc1c(/C=N/O)ccc(-c2ccc(C)cc2)c1-c1ccc(C)cc1 |

From ChEMBL document CHEMBL1145331, “Synthesis of anthranylaldoxime derivatives as estrogen receptor ligands and computational prediction of binding modes” (J Med Chem, 2006)
